Patent US7001756B1, “Microorganism strain of GM-020 of Lactobacillus rhamnosus and its use for treating obesity” (GenMont Biotech Inc., priority 2004, dated 2006)

Columns and labels:
[1] = Obesity model: body weight of ICR mice on high energy diet; type: in vivo; settings: GM-020 10^9 CFU/mL or PPA 4.875 mg each time, twice a day
Description: (§1) Food and water were supplemented sufficiently. The mice were divided into two groups. […] The mice's body weights were measured every week.
(§2) The treatments were administrated twice a day.
Body weight difference: After treated for 4 weeks, blood samples were collected from the tails for biochemical assay.

[2] = Obesity model: lipid tissue weight around the testicle and the kidney; type: in vivo, ICR mice; settings: after 4 weeks treatment; GM-020 10^9 CFU/mL or PPA 4.875 mg each time, twice a day
Description: as §1, §2
Differences of lipid tissue weight around the testicle: The mice were sacrificed, and the lipid tissues around the testicle were taken and weighted.
Differences of lipid tissue weight around the kidney: The mice were sacrificed, and the lipid tissues around the kidney were taken and weighted.

[3] = Obesity model: serum concentration of fat metabolites; type: in vivo, ICR mice; settings: 4 weeks treatment, GM-020 10^9 CFU/mL or PPA 4.875 mg each time, twice a day
Description: as §1, §2
Serum concentration of fat metabolites: Blood samples were collected from the tails for biochemical assay. The blood samples were stayed at room temperature for 1 hour and centrifuged at 2,500 rpm for 10 minutes. The upper layer of serum was taken for assay.
The concentration of triacylglycol (TG) of each group was assayed with TRI[…] LIQUID REAGENT™ (ASK®, Taiwan) and the absorption was measured with Autoanalyzer Hitachi™ 7150. The concentration of total cholesterol (CHOL) was assayed with C[…] REAGENT™ (ASK®, Taiwan), and the absorption was measured with Autoanalyzer Hitachi™ 7150.

[4] = Obesity model: liver concentration of fat metabolites; type: in vivo, ICR mice; settings: right lobe of liver; 4 weeks treatment; GM-020 10^9 CFU/mL or PPA 4.875 mg each time, twice a day
Description: as §1, §2
Liver concentration of fat metabolites: The mice were sacrificed, and the right lobe of liver was taken. The fat was extract according to the conventional method.
For each sample, the concentration of triacylglycol (TG) and total cholesterol (CHOL) were assayed as mentioned above.

[5] = Liver and kidney function assays (serum GOT, GPT, creatinine, uric acid); settings: 4 weeks treatment, GM-020 10^9 CFU/mL or PPA 4.875 mg each time, twice a day
Description: Animal model: Male ICR mice were purchased from National Laboratory Animal Center in Taiwan and raised alone in light for 12 hours and in dark for 12 hours at a temperature of 25±1° C. and a humidity of 60±5%. Food and water were supplemented sufficiently. The mice were divided into two groups. One was normal control group and the other was high energy group. The normal control group was fed with normal diet, and the high energy group was fed with high energy diet containing 48% dry feeding stuff, 8% corn oil and 44% condensed milk. The mice's body weights were measured every week. The high energy group was further divided into groups as listed below according treatment: (a) 1× of wood ear, (b) 1× of wood ear combined with GM-020, (c) GM-020, (d) 10× of wood ear, (e) 10× of wood ear combined with GM-020, (f) negative control treated with normal saline, and (g) positive control treated with PPA.
Treatment with GM-020 and/or wood ear: The normal control group was fed with normal diet continuously. The treatments were administrated twice a day. The dosage of PPA was 4.875 mg each time. In the meal of 1× of wood ear, there was 15.6 mg of wood ear in 3 g diet, and in the meal of 10× of wood ear, there is 156 mg of wood ear in 3 g diet. The dosage of GM-020 was 10^9 CFU/mL.
Liver and kidney function assays: The blood samples were treated as described above.
For each sample, the concentration of creatinine was assayed according to Jaffe Reaction method (Unichem®, Japan) and the absorption was measured with Autoanalyzer Hitachi™ 7150. The concentration of GOT was assayed with GOT (ASAT) IFCC mod™. (HUMAN®, Germany) and the absorption was measured with Autoanalyzer Hitachi™ 7150. The concentration of GPT was assayed with GPT (ALAT) IFCC mod™. (HUMAN®, Germany) and the absorption was measured with Autoanalyzer Hitachi™ 7150. The concentration of uric acid (UA) was assayed according to uricase-peroxidase method (Unichem®, Japan) and the absorption was measured with Autoanalyzer Hitachi™ 7150.
The data were analyzed with Kruskal Wallis H Test, and that of the normal control group was taken as a baseline for Dunnett Test.

## CC(N)C(O)c1ccccc1 (centres unmarked) [Positive Control, phenylpropanolamine]
[1]; after 2 weeks
  body weight compared with the negative control group: significant decrease
[1]; after 3 weeks
  body weight compared with the negative control group: significant decrease
[2]
  lipid tissue weight around the kidney compared with the negative control group: little difference
  lipid tissue weight around the testicle compared with the negative control group: significant decrease
[3]
  CHOL (serum concentration of total cholesterol): 219.08 ± 11.22
  HDL (serum concentration of HDL-C): 123.19 ± 4.20
  LDL (serum concentration of LDL-C): 10.04 ± 0.93
  TG (serum concentration of triacylglycol): 75.83 ± 9.93
[4]
  CHOL (liver concentration of total cholesterol): 26.75 ± 1.48
  TG (liver concentration of triacylglycol): 103.58 ± 11.41
[5]
  Creatinine: 0.56 ± 0.03
  GOT: 117.50 ± 12.95
  GPT: 47.00 ± 6.17
  UA (uric acid): 2.42 ± 0.50
